Results: ChEMBL document CHEMBL5696442, “Discovery of type II inhibitors of TGFβ-activated kinase 1 (TAK1) and mitogen-activated protein kinase kinase kinase kinase 2 (MAP4K2)” (J Med Chem, 2015)

What was measured:
[1] = biological target: T1, Mitogen-activated protein kinase 13 (Homo sapiens) (UniProt O15264); assay: Inhibition of p38delta Lys2 labeling site in human Huh-7 cells at 1 uM by KiNativ Profiling analysis relative to control; assay type: cell-based
T1 sequence (whole entry): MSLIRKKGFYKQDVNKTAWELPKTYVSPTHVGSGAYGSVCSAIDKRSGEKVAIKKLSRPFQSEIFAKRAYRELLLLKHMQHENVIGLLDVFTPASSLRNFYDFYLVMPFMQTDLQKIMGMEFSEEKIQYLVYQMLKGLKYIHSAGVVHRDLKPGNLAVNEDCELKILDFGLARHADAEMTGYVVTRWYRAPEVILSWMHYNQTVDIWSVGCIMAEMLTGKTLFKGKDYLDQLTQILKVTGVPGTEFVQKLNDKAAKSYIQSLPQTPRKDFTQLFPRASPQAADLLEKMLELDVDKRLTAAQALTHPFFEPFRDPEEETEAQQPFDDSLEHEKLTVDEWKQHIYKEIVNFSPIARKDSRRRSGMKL

[2] = Inhibition of […] K2 labeling site in human Huh-7 cells at 1 uM by KiNativ Profiling analysis relative to control; details: condition cancer
[3] = biological target: T2, Serine/threonine-protein kinase LATS1 (Homo sapiens) (UniProt O95835); assay: Inhibition of LATS1 Lys2 labeling site in human A-375 cells at 5 uM by KiNativ Profiling analysis relative to control; assay type: cell-based
T2 sequence (whole entry): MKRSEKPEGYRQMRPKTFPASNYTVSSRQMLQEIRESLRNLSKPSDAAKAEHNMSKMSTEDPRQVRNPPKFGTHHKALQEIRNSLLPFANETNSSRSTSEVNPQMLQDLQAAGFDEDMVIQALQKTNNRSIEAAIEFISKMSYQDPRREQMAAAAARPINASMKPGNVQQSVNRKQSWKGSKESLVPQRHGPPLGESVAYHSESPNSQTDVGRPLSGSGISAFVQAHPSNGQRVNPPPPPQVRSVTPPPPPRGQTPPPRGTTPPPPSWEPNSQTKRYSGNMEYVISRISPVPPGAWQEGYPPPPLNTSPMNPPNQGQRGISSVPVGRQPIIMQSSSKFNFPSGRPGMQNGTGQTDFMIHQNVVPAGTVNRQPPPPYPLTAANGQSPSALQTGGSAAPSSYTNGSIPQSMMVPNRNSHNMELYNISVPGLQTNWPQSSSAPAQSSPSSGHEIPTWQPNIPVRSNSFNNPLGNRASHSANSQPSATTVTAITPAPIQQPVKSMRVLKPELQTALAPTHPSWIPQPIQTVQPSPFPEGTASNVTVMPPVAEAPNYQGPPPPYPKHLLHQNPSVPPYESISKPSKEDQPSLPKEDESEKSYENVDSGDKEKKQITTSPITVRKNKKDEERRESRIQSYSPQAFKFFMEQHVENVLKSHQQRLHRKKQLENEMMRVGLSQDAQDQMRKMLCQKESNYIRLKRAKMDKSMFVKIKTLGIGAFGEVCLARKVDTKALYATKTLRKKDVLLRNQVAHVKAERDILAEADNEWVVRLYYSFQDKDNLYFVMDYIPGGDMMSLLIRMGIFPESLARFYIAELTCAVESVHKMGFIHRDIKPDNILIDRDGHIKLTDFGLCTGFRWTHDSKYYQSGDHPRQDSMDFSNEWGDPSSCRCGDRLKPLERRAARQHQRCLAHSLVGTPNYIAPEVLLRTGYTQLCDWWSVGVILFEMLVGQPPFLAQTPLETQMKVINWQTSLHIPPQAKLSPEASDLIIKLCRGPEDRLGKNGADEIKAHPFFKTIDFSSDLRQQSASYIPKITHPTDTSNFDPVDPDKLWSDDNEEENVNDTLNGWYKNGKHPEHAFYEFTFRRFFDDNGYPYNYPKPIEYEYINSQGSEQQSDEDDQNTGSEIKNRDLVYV

[4] = biological target: RAF proto-oncogene serine/threonine-protein kinase (Homo sapiens, UniProt P04049); assay: Inhibition of RAF1 Lys2 labeling site in human A-375 cells at 5 uM by KiNativ Profiling analysis relative to control; assay type: cell-based
Sequence of RAF proto-oncogene serine/threonine-protein kinase (P04049 whole entry, the tested form may be a part): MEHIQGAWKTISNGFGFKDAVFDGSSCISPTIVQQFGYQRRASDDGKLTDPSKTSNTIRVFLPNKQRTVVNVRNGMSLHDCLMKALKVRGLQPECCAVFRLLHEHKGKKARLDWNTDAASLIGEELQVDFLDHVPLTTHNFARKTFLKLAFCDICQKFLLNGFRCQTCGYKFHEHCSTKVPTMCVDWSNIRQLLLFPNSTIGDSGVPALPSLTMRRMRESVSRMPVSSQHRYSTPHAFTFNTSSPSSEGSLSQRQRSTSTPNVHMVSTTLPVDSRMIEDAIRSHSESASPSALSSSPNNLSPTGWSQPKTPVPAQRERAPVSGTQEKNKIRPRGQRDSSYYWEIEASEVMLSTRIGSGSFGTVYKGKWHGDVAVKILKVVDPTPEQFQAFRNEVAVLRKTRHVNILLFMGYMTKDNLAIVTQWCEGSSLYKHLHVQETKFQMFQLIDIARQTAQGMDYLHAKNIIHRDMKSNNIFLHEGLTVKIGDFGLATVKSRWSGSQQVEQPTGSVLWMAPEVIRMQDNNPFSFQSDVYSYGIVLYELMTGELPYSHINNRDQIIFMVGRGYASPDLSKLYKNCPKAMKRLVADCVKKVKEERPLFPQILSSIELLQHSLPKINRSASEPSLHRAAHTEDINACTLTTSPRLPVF

[5] = biological target: Non-receptor tyrosine-protein kinase TYK2 (Homo sapiens) (UniProt P29597); assay: Inhibition of TYK2 domain2 ACT labeling site in human A-375 cells at 0.5 uM by KiNativ Profiling analysis relative to control; assay type: cell-based
Sequence of Non-receptor tyrosine-protein kinase TYK2 (Homo sapiens) (P29597 whole entry, the tested form may be a part): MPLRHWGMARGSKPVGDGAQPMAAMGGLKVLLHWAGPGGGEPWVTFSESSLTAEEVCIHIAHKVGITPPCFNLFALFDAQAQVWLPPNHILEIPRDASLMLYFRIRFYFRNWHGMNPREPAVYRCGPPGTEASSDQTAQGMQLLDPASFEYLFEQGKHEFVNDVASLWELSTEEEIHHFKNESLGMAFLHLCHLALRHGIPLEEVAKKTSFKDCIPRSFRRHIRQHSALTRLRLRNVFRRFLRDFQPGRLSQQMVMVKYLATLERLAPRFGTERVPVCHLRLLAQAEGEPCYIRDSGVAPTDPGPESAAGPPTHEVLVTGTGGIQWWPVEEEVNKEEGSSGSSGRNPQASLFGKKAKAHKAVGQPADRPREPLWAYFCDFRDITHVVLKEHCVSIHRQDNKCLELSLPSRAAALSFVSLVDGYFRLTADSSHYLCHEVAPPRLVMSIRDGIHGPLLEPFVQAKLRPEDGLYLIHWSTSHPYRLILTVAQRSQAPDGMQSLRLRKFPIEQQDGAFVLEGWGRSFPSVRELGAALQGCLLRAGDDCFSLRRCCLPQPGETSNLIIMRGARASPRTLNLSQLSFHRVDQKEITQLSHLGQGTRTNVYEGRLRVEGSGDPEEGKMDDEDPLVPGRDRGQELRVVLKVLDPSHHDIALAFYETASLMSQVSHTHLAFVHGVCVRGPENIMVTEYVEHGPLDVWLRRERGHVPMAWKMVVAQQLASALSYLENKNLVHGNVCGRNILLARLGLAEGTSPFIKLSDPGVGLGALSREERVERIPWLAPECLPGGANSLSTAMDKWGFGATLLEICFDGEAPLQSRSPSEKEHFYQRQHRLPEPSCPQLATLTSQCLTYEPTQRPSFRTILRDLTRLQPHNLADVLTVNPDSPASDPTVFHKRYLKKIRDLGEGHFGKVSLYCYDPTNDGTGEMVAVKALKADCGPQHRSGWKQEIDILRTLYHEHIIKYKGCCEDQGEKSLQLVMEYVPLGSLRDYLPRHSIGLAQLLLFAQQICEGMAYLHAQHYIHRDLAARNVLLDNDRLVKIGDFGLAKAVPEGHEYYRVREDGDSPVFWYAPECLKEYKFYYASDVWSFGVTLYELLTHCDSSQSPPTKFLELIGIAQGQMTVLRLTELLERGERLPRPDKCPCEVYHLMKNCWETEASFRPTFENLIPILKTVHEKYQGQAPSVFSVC

[6] = biological target: DNA-PK/Ku70/Ku85 (Homo sapiens) (UniProt P78527+P12956+P13010); assay: Inhibition of DNAPK ATP labeling site harbouring GHDEREHPFLVKGGEDLRQDQR in human A-375 cells at 0.5 uM by KiNativ Profiling analysis relative to control; assay type: cell-based
[7] = biological target: T3, Myotonin-protein kinase (Homo sapiens) (UniProt Q09013); assay: Inhibition of DMPK (unknown origin) at 1 uM by Ambit Kinomescan binding assay relative to control; values are per cent of control
T3 sequence (whole entry): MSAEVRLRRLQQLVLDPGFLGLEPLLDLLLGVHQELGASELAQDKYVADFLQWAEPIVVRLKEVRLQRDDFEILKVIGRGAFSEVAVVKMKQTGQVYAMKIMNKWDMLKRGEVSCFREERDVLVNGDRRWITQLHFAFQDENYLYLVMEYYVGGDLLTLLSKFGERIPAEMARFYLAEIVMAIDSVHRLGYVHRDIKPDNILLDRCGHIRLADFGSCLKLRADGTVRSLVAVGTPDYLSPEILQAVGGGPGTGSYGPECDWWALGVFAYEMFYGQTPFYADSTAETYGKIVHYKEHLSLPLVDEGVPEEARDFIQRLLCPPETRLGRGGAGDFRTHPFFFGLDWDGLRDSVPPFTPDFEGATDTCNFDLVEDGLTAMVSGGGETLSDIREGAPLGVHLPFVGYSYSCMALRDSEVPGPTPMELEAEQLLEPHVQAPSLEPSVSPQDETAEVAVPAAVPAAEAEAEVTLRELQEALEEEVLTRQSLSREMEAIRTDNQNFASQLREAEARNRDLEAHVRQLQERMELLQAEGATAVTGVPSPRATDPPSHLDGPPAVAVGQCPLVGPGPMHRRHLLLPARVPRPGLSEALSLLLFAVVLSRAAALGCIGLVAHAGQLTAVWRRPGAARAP

SMILES: CNc1cc(Oc2cc(C(=O)Nc3cc(N4CCN(C)CC4)cc(C(F)(F)F)c3)ccc2C)ncn1
- inhibition [1]: 13%

SMILES: CCN1CCN(Cc2ccc(NC(=O)c3ccc(C)c(Oc4ccnc5[nH]ccc45)c3)cc2C(F)(F)F)CC1
- inhibition at 1 µM [2]: -16%
- inhibition [3]: -6.4%
- inhibition [4]: 83.8%
- inhibition [5]: -3.5%
- inhibition [6]: -6%

SMILES: CCN1CCN(Cc2ccc(NC(=O)c3ccc(C)c(/C=C/c4cnc5[nH]ccc5c4OC)c3)cc2C(F)(F)F)CC1
- residual activity [7]: 100%
